Data: patent EP0280461A2, “Dobutamine salts” (ELI LILLY AND COMPANY, priority 1987, dated 1988)
Structures can show the parent of a compound that is named as a salt.

Assay: aqueous solubility at 25°C
Format: physicochemical
Details: water

| Compound | solubility (room temperature (25°C)) | also measured |
| --- | --- | --- |
| CC(CCc1ccc(O)cc1)NCCc1ccc(O)c(O)c1 (stereo not shown) [dobutamine hydrobromide] | – | aqueous solubility (room temperature (25°C), hydrobromide): about 28 mg per ml of water |
| CC(CCc1ccc(O)cc1)NCCc1ccc(O)c(O)c1 (racemic) [Dobutamine phosphate dibasic, dobutamine phosphate dibasic] | ~25 mg/mL | – |
| CC(CCc1ccc(O)cc1)NCCc1ccc(O)c(O)c1 (stereo not shown) [dobutamine hydrochloride] | 28 mg/mL | – |
| CC(CCc1ccc(O)cc1)NCCc1ccc(O)c(O)c1 (racemic) [dobutamine phosphate monobasic] | – | solubility (at 25°C): ~2000 mg/mL |
